Assay results: paper PMC6792350 (Environmental Health Perspectives, 2019)

How the values were obtained:
[1] = Cumulative urinary excretion after IV and oral dosing in piglets; conditions: for fraction of parent dose recovered in urine as glucuronide, mean±SD / fraction of parent dose recovered in urine as glucuronide, range: by 24 h
Procedure: Blood samples were collected in heparinized polypropylene tubes, immediately chilled in ice and centrifuged for 10 min at 3,000×g at 4°C, and the supernatant plasma was stored in polypropylene tubes at −20°C until assay. Total urine was filtered through a nylon mesh ( 250μm ) and collected in glass containers and chilled in ice. The volume of each urine sample and the sampling time were recorded. A urine sample was immediately chilled in ice and centrifuged for 10 min at 3,000×g at 4°C and stored at −20°C until assayed.
Analytes were quantified by Acquity UPLC-MS/MS (Waters Corporation).
All TK analyses were performed using the Phoenix® NLME (version 8.0; Pharsight Corporation). The plasma mass concentrations were converted into molar concentrations before analysis.

[2] = Population semiphysiologically based 9-compartment TK model (NLME) of plasma and urine data in piglets; conditions: for tvK25, rate constant liver to plasma for the glucuronide, Mean / tvK50, glucuronide elimination rate constant from plasma to urine, Mean / tvK56, distribution rate constant, Mean / tvK65, distribution rate constant, Mean / tvK105, rate constant of glucuronide formed by enterocytes absorbed into the systemic circulation, Mean / tvV, volume of the central compartment, Mean: bootstrap mean; for tvK25, rate constant liver to plasma for the glucuronide, Median / tvK50, glucuronide elimination rate constant from plasma to urine, Median / tvK56, distribution rate constant, Median / tvK65, distribution rate constant, Median / tvK105, rate constant of glucuronide formed by enterocytes absorbed into the systemic circulation, Median / tvV, volume of the central compartment, Median: bootstrap median; for mean volume of the central compartment: pig, in vivo; for tvV, volume of the central compartment, Mean / tvV, volume of the central compartment, Median: population primary parameter
Procedure: The NLME model was therefore developed by combining the plasma and urinary data sets from the five TK experiments carried out in piglets, except for the urinary BPA concentration obtained after oral administration of BPA.
Different compartmental models and submodels were tested and compared using the likelihood ratio test (LRT). The primary parameters of the model, namely the volumes of distribution ( VBPA , VBPAG , VBPS , VBPSG ) and the first-order rate constants ( Kij ) and their associated precisions [standard error (SE)] were estimated by minimizing an objective function value (OFV) expressed as minus twice the log of the likelihood estimation ( −2LL ).
The between-subject variability (BSV) of the parameters was evaluated using the exponential model θparameter_i=θtv_parameter×exp(ηi) , where θparameter_i is the parameter estimated for the i^th individual, θtv_parameter is the typical population value of the parameter, and ηi is the deviation associated with the i^th individual from the corresponding value of the parameter at the population level. The distribution of ηi was assumed to be normal with a mean of 0 and a variance ω² . The BSV was reported as a coefficient of variation (CV) in the original scale CV(%)=100× exp (ω^2)−1 .
The residual variance was modeled using a combined additive and proportional error model Cobsij=Cpredij(1+ε1ij)+ε2ij where Cobsij and Cpredij are respectively the j^th observed and predicted concentrations for the i^th individual and ε1ij and ε2ij the multiplicative and additive residual errors.
The bootstrap tool (20 replicates) was used to evaluate the mean, median, SE, and coefficient of variation of the parameter estimates. The predictive ability of the model was checked graphically by plotting Visual Predictive Check plots to compare the observed data with the selected quantiles (here 20th, 50th and 80th percentiles) of data simulated using the model and obtained from 200–1,000 replicates from each animal based on the structure of the original data (i.e., dosing, timing and number of samples).
For the LRT test, the critical value of the χ^2 distribution considered for a given nominal risk and a given number of degrees of freedom was obtained using the Excel function CHISQ.INV.RT().
Figure 1. Schematic representation of the compartmental model. […] The link between the two central compartments was modeled with a compartment (CP2) that should be viewed as the liver. […] The fraction of absorbed BPA that is not hepatically transformed reaches the CP3 via K23 . The exchanges between CP2 and CP3 are bilateral, K32 being the rate constant between CP3 and CP2 and K23 the rate constant between CP2 and CP3. […] It was assumed that no phase-two metabolite other than BPAG (BPSG) was formed.
(12) Bioavailability=K12/K12+K110+K10×(1−K25/K25+K23) with K10 , K12 , K110 , K23; K25 as defined above.

[3] = Noncompartmental toxicokinetic analysis of plasma after IV dosing in piglets; conditions: for time after which plasma concentrations were below the LOQ: after IV BPA and BPS administration; for time of maximal plasma glucuronide concentration: after IV BPA and BPS dosing; for Cmax/dose / AUC0-tlast/dose / Tmax: plasma, mean±SD; for Cmax/dose: IV BPA 21.9 or 20 μmol/kg (n=15) or IV BPS 20 μmol/kg (n=16), glucuronides after parent dosing; for AUC0-tlast/dose: IV BPA or BPS dosing; for Tmax: glucuronide after IV BPA or BPS dosing
Procedure: Table 1 summarizes the protocol of the experiments and the plasma and urine datasets further considered for TK analyses. A first experiment (Exp. 1) was performed in 8 male piglets age 42 d ( 20.8±1.6kg BW) to investigate oral BPA TK. […] BPA data obtained after IV BPA administrations had already been used to evaluate human BPA clearance using an allometric approach ([Collet et al. 2015]).
For the IV administrations, BPA powder was dissolved in ethanol–propylene glycol (1:49, vol:vol) at 50mg/mL (Exp.1 and 2) and in ethanol–saline (1:2, vol:vol) at 23mg/mL (Exp. 5).
During the first 24 h of sampling, the piglets were housed individually in stainless steel cages.
(§1) The plasma analytes concentration–time data from individual piglets were used to derive the maximum concentration (Cmax), and the time to maximum concentration (Tmax). The area under the plasma concentration–time curves from dosing time to the time of the last measurable concentration ( AUC0–tlast ) were calculated using the linear trapezoidal rule (Equation 1). (1) AUC0–tlast=∑0tlast(Ci−1+Ci/2)×(ti−ti−1) where Ci is the concentration obtained at the time i ( ti ).
(§2) The area under the plasma concentration time curve from t=0 to infinity ( AUC0–inf ) was obtained using Equation 2. (2) AUC0–inf=AUC0–tlast+AUCtlast–inf where AUCtlast–inf is the area extrapolated from the last observation to infinity, calculated according to Equation 3: (3) AUCtlast–inf=Clast/λz where Clast is the last observed quantifiable plasma concentration, and λz is the slope of the terminal phase, as estimated by linear regression using the best fit option of Phoenix®.

[4] = Noncompartmental toxicokinetic analysis of plasma after oral (gavage) dosing in piglets; conditions: plasma, mean±SD; for Cmax/dose: oral BPA 438 or 200 μmol/kg (n=12) or oral BPS 40 or 200 μmol/kg (n=10); for AUClast/dose / Tmax: oral BPA or BPS dosing
Procedure: Table 1 summarizes the protocol of the experiments and the plasma and urine datasets further considered for TK analyses.
For administrations by gavage, BPA powder was dissolved in ethanol–corn oil (1:9, vol:vol) at 100mg/mL (Exp. 1).
as §1, §2

[5] = IV BPA (n=7) or IV BPS (n=16) dosing
[6] = oral BPA (n=4) or oral BPS (n=10) dosing

CC(C)(c1ccc(O)cc1)c1ccc(O[C@@H]2O[C@H](C(=O)O)[C@@H](O)[C@H](O)[C@H]2O)cc1 [BPAG, Bisphenol A glucuronide]
fraction of parent dose recovered in urine as glucuronide, mean±SD [1, 5]: 97.0±27.6% | fraction of parent dose recovered in urine as glucuronide, range ([1]; IV BPA or BPS dosing): 63.1–135.7% | fraction of parent dose recovered in urine as glucuronide, mean±SD [1, 6]: 62.2±15.8% | fraction of parent dose recovered in urine as glucuronide, range ([1]; oral BPA or BPS dosing): 49.5–80.2% | tvK25, rate constant liver to plasma for the glucuronide, Mean [2]: 137.08 h⁻¹ | tvK50, glucuronide elimination rate constant from plasma to urine, Mean [2]: 2.750 h⁻¹ | tvK56, distribution rate constant, Mean [2]: 1.45 h⁻¹ | tvK65, distribution rate constant, Mean [2]: 0.015 h⁻¹ | tvK105, rate constant of glucuronide formed by enterocytes absorbed into the systemic circulation, Mean [2]: 0.207 h⁻¹ | tvK25, rate constant liver to plasma for the glucuronide, Median [2]: 91.87 h⁻¹ | tvK50, glucuronide elimination rate constant from plasma to urine, Median [2]: 2.547 h⁻¹ | tvK56, distribution rate constant, Median [2]: 1.45 h⁻¹ | tvK65, distribution rate constant, Median [2]: 0.015 h⁻¹ | tvK105, rate constant of glucuronide formed by enterocytes absorbed into the systemic circulation, Median [2]: 0.217 h⁻¹ | mean volume of the central compartment [2]: 0.11 L/kg | tvV, volume of the central compartment, Mean [2]: 0.107 L/kg | tvV, volume of the central compartment, Median [2]: 0.112 L/kg | time after which plasma concentrations were below the LOQ [3]: 12 to 24 h | time of maximal plasma glucuronide concentration [3]: about 20 min | Cmax/dose [3]: 1.80±0.85 μmol/L per μmol/kg BW | AUC0-tlast/dose [3]: 2.04±0.58 μmol×h/L per μmol/kg | Tmax [3]: 21 ± 20.4 min | Cmax/dose [4]: 0.58±0.34 μmol/L per μmol/kg BW | AUClast/dose [4]: 1.75±0.73 μmol×h/L per μmol/kg BW | Tmax [4]: 74.4 ± 64.2 min

O=C([O-])[C@H]1O[C@@H](Oc2ccc(S(=O)(=O)c3ccc(O)cc3)cc2)[C@H](O)[C@@H](O)[C@@H]1O.[Na+] [BPSG, Bis(4-hydroxyphenyl) Sulfone O-β-D-Glucuronide-Sodium Salt]
fraction of the IV BPSG dose recovered in urine, range ([1]; 24 h post dosing, IV BPSG): 40.1–69.8% | mean fraction of the IV BPSG dose recovered in urine ([1]; 24 h post dosing, IV BPSG): 59.0±9.96% | fraction of parent dose recovered in urine as glucuronide, mean±SD [1, 5]: 76.8±20.1% | fraction of parent dose recovered in urine as glucuronide, range ([1]; IV BPA or BPS dosing): 36.3–107.9% | fraction of parent dose recovered in urine as glucuronide, mean±SD [1, 6]: 86.5±23.9% | fraction of parent dose recovered in urine as glucuronide, range ([1]; oral BPA or BPS dosing): 65.5–126.8% | tvK25, rate constant liver to plasma for the glucuronide, Mean [2]: 66.6 h⁻¹ | tvK50, glucuronide elimination rate constant from plasma to urine, Mean [2]: 1.818 h⁻¹ | tvK56, distribution rate constant, Mean [2]: 0.730 h⁻¹ | tvK65, distribution rate constant, Mean [2]: 0.006 h⁻¹ | tvK105, rate constant of glucuronide formed by enterocytes absorbed into the systemic circulation, Mean [2]: 0.534 h⁻¹ | tvK25, rate constant liver to plasma for the glucuronide, Median [2]: 62.147 h⁻¹ | tvK50, glucuronide elimination rate constant from plasma to urine, Median [2]: 1.832 h⁻¹ | tvK56, distribution rate constant, Median [2]: 0.655 h⁻¹ | tvK65, distribution rate constant, Median [2]: 0.006 h⁻¹ | tvK105, rate constant of glucuronide formed by enterocytes absorbed into the systemic circulation, Median [2]: 0.523 h⁻¹ | mean volume of the central compartment [2]: 0.14 L/kg | tvV, volume of the central compartment, Mean [2]: 0.135 L/kg | tvV, volume of the central compartment, Median [2]: 0.137 L/kg | time after which plasma concentrations were below the LOQ [3]: 8 to 12 h | time of maximal plasma glucuronide concentration [3]: about 20 min | Cmax/dose [3]: 2.55±0.58 μmol/L per μmol/kg BW | AUC0-tlast/dose [3]: 2.59±0.77 μmol×h/L per μmol/kg | Tmax [3]: 17.4 ± 11.4 min | Cmax/dose [4]: 2.94±4.78 μmol/L per μmol/kg BW | AUClast/dose [4]: 2.87±0.99 μmol×h/L per μmol/kg BW | Tmax [4]: 43.8 ± 18 min

O=S(=O)(c1ccc(O)cc1)c1ccc(O)cc1 [BPS, bisphenol S]
part of the dose eliminated in urine ([1]; 3 h after dosing): About half | unconjugated compound in urine, fraction of IV dose ([1]; IV BPA and BPS doses): 0.027±0.0084%
